According to article PMC11547452, “Synthesis of New Pyrazolo[3,4-d]pyrimidine Derivatives: NMR Spectroscopic Characterization, X-Ray, Hirshfeld Surface Analysis, DFT, Molecular Docking, and Antiproliferative Activity Investigations” (Molecules, 2024):

Experiments:
[1] = system: HCT 116; assay: MTT antiproliferative assay, HCT 116; format: cell-based; conditions: Homo sapiens, three different experiments, read-out: In Vitro Cytotoxicity IC50
Protocol: (§1) The antiproliferative activity of P1–P4 was evaluated by the MTT standard assay and sunitinib (a well-known FDA-approved multi-kinase inhibitor) as a reference against HCT 116, HepG2, and MCF-7 cell lines, and WI38 normal cell line. […] The antiproliferative activity of P1–P4 was assessed by using an MTT standard assay and sunitinib drug towards HCT 116, HepG2, MCF-7 cells, and WI38 normal cell line using the previously described methodology.

[2] = system: HepG2; assay: MTT antiproliferative assay, HepG2; format: cell-based; conditions: Homo sapiens, three different experiments, read-out: In Vitro Cytotoxicity IC50
Protocol: as §1

[3] = system: MCF-7; assay: MTT antiproliferative assay, MCF-7; format: cell-based; conditions: Homo sapiens, MCF7, three different experiments, read-out: In Vitro Cytotoxicity IC50
Protocol: as §1

[4] = MTT cytotoxicity assay, WI38 normal cell line; format: cell-based; conditions: human, WI38 normal cells; WI38 normal cell line; MTT; three different experiments; read-out: In Vitro Cytotoxicity IC50
Protocol: as §1

[5] = system: HCT 116, HepG2, and MCF-7 cell lines; assay: MTT antiproliferative assay, summary over the tested cell lines; format: cell-based; conditions: across the tested cancer cell lines
Protocol: as §1

[6] = system: WI38 normal cell line; assay: MTT cytotoxicity assay, WI38 normal cell line; format: cell-based; conditions: cancer cell lines vs WI38 normal cell line; formula not given
Protocol: as §1

Row | SMILES | IC50 [1] [µM] | IC50 [2] [µM] | IC50 [3] [µM] | IC50 [4] [µM] | IC50 [5] [µM] | melting point [°C] | Selectivity Index [6]
1 | Cc1nn(-c2ccccc2)c2ncn(C)c(=O)c12 [Compound P2, 3,5-Dimethyl-1-phenyl-1,5-dihydro-4H-pyrazolo[3,4-d]pyrimidin-4-one] | 38.7 ± 2.3 | 31.9 ± 2.1 | 40.8 ± 2.4 | > 100 | 22.7 to 40.8 | 143 to 145 | 
2 | CCN(CC)CCNC(=O)c1c(C)[nH]c(/C=C2\C(=O)Nc3ccc(F)cc32)c1C [Sunitinib, sunitinib, reference compound] |  |  |  | 55.6 ± 3.3 |  |  | 0.30
3 | Cc1nn(-c2ccccc2)c2ncn(CC(=O)c3ccccc3)c(=O)c12 [Compound P4, 3-Methyl-5-(2-oxo-2-phenylethyl)-1-phenyl-1,5-dihydro-4H-pyrazolo[3,4-d]pyrimidin-4-one] | 92.5 ± 4.9 | 66.8 ± 3.8 | > 100 | 44 ± 2.6 | > 67 |  | 
4 | Cc1nn(-c2ccccc2)c2nc[nH]c(=O)c12 [Compound P1, 3-methyl-1-phenyl-1,5-dihydro-4H-pyrazolo[3,4-d]pyrimidin-4-one] | 28.9 ± 2.1 | 22.7 ± 1.7 | 36.3 ± 2.6 | 85.7 ± 4.7 | 22.7 to 40.8 | 153 to 155 | 
5 | C#CCn1cnc2c(c(C)nn2-c2ccccc2)c1=O [Compound P3, 3-Methyl-1-phenyl-5-(prop-2-yn-1-yl)-1,5-dihydro-4H-pyrazolo[3,4-d]pyrimidin-4-one] | 89.9 ± 4.5 | 88.6 ± 4.7 | 85.2 ± 4.4 | 52.5 ± 3.1 | > 67 | 155 to 157 | 1.67
